The supplement of paper PMC10307832

Legend:
Assay in all cases: relative viability (nuclei count vs DMSO), 5 days (fraction); higher = more cells survive
[1] = compound: Cc1cc(Nc2cc(N3CCN(C)CC3)nc(Sc3ccc(NC(=O)C4CC4)cc3)n2)n[nH]1 [Tozasertib] + Nc1nc2[nH]cc(CCc3ccc(C(=O)N[C@@H](CCC(=O)O)C(=O)O)cc3)c2c(=O)[nH]1 [Pemetrexed] (partner 0.2 µM)
How it was run: (§1)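 Relative viability was taken as the ratio of nuclei in treated wells to nuclei in vehicle wells. Lung cancer cell lines in 1536-well plates received compounds by pin tool one day after seeding, either one drug alone or a fixed anchor-drug dose plus five library-drug doses (not always all listed) in √10 steps. Nuclei were counted on 4× images after 5 days of treatment, and values are medians of duplicate plates.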

[2] = compound: Cc1cc(Nc2cc(N3CCN(C)CC3)nc(Sc3ccc(NC(=O)C4CC4)cc3)n2)n[nH]1 [Tozasertib] + COc1cc2c(Oc3ccc(NC(=O)C4(C(=O)Nc5ccc(F)cc5)CC4)cc3F)ccnc2cc1OCCCN1CCOCC1 [Foretinib] (partner 0.25 µM)
How it was run: as §1

[3] = compound: Cc1cc(Nc2cc(N3CCN(C)CC3)nc(Sc3ccc(NC(=O)C4CC4)cc3)n2)n[nH]1 [Tozasertib] + O=C(c1cc(Cc2n[nH]c(=O)c3ccccc23)ccc1F)N1CCN(C(=O)C2CC2)CC1 [Olaparib] (partner 8 µM)
How it was run: as §1

[4] = compound: Cc1cc(Nc2cc(N3CCN(C)CC3)nc(Sc3ccc(NC(=O)C4CC4)cc3)n2)n[nH]1 [Tozasertib] + N=C(N)NC(=N)NCCc1ccccc1 [Phenformin] (partner 250 µM)
How it was run: as §1

[5] = compound: Cc1cc(Nc2cc(N3CCN(C)CC3)nc(Sc3ccc(NC(=O)C4CC4)cc3)n2)n[nH]1 [Tozasertib] + CC1(C)CCC(c2ccc(Cl)cc2)=C(CN2CCN(c3ccc(C(=O)NS(=O)(=O)c4ccc(N[C@H](CCN5CCOCC5)CSc5ccccc5)c(S(=O)(=O)C(F)(F)F)c4)cc3)CC2)C1 [Navitoclax] (partner 0.5 µM)
How it was run: as §1

Cell Line	relative viability ([1]; first compound 0.004 µM)	relative viability ([1]; first compound 0.01265 µM)	relative viability ([1]; first compound 0.04 µM)	relative viability ([1]; first compound 0.1265 µM)	relative viability ([2]; first compound 0.004 µM)	relative viability ([2]; first compound 0.01265 µM)	relative viability ([2]; first compound 0.04 µM)	relative viability ([2]; first compound 0.1265 µM)	relative viability ([3]; first compound 0.004 µM)	relative viability ([3]; first compound 0.01265 µM)	relative viability ([3]; first compound 0.04 µM)	relative viability ([3]; first compound 0.1265 µM)	relative viability ([4]; first compound 0.004 µM)	relative viability ([4]; first compound 0.01265 µM)	relative viability ([4]; first compound 0.04 µM)	relative viability ([4]; first compound 0.1265 µM)	relative viability ([5]; first compound 0.004 µM)	relative viability ([5]; first compound 0.01265 µM)	relative viability ([5]; first compound 0.04 µM)	relative viability ([5]; first compound 0.1265 µM)
NCI-H358	0.179	0.164	0.181	0.145	0.736	0.617	0.545	0.106	0.555	0.562	0.56	0.187	0.353	0.295	0.354	0.0988				
NCI-H522	0.931	1.16	0.927	0.837					0.619		0.603	0.531	0.687	0.62	0.676	0.593				
NCI-H650	1.01	0.897	0.878	0.82	1.14		1.02	0.879	0.381	0.315	0.357	0.325	0.497	0.445	0.444	0.379				
NCI-H661	1.01	0.833	0.933	0.561	1.09	0.982	1.03	0.357	0.807	0.791	0.663	0.448	0.287	0.313	0.319	0.253				
NCI-H727					1.02	0.984	0.958	0.689	0.659	0.79	0.678	0.624	0.588	0.466	0.537	0.375	0.481	0.5	0.489	0.242
NCI-H1703					0.36	0.409	0.337	0.327	0.492	0.391	0.476	0.45					1.35	1.14	1.26	0.366
NCI-H1792	0.928	0.616	0.895	0.515					0.456	0.435	0.707	0.314	0.325		0.423	0.209	0.681	0.481		0.418
NCI-H2342	0.809	0.778	0.744	0.759	0.949	0.997	1.02	0.908	0.43	0.44	0.471	0.443	0.635	0.607	0.57	0.465				
SW 900	0.516		0.498	0.408	0.914	0.825	1.08	0.638	0.802	0.809	0.851	0.619	0.583	0.381	0.708	0.586				
